Measurements from ChEMBL document CHEMBL1148931, “New sesterterpenes from the sponge Smenospongia sp” (2004).
In brackets after ≈: the same amount, converted by molar mass.

What follows are molecules tested on K562 (assay: Cytotoxicity against human K562 cells). Conditions: read-out: LC50 (the source's name).
Assay type: functional

| SMILES | CC50 [µg/mL] |
| --- | --- |
| CC(=O)OC[C@]12CCCC(C)(C)[C@@H]1CC[C@@]1(C)[C@@H]3CC=C4C(=O)O[C@@H](O)[C@@H]4[C@@]3(C)CC[C@@H]12 | 4.9 (≈ 11 µM) |
| CC(=O)O[C@@H]1OC=C2[C@@H](OC(C)=O)C[C@@H]3[C@](C)(CC[C@H]4[C@@]3(C)CC[C@H]3C(C)(C)CCC[C@@]34CO)[C@H]21 | 0.02 (≈ 0.0409 µM) |
| C/C(=C\CC/C(C)=C/C[C@H](O)c1ccoc1)CC/C=C(\C)CC(=O)CC(C)C | 3 (≈ 7.76 µM) |
| CC(=O)O[C@@H](C/C=C(\C)CC/C=C(\C)CC/C=C(\C)CC(=O)CC(C)C)c1ccoc1 | 31.6 (≈ 73.7 µM) |
| CC(=O)OC[C@]12CCCC(C)(C)[C@@H]1CC[C@@]1(C)[C@@H]3CC=C4C(=O)O[C@@H](OC(C)=O)[C@@H]4[C@@]3(C)CC[C@@H]12 | 11.2 (≈ 23 µM) |
